Data from patent US7166688B1, “Chelation compositions” (LidoChem, Inc., priority 2000, dated 2007).

Experiments:
[1] = Copper chelation, clear solution / precipitate test; assay type: physicochemical; details: 1 gram copper sulfate in 250 ml water, 10 ml solution, pH 8.4, 1 gram potassium phosphate
Protocol: A five percent chelated copper solution was prepared by blending 19 grams of basic copper sulfate in 100 ml of water. Concentrated HCl was added to solubilize the copper. Once in solution, 71 grams of the compound produced in Example 10 was added. […] This chelated copper solution is suitable for blending with phosphorus fertilizers.
In 250 ml of water 1 gram of copper sulfate was added and mechanically stirred. To this solution, 10 ml of the diethanolsuccinamide-amino ethanol solution produced in Example 17 was added. The pH of the blend was adjusted to 8.4 and 1 gram of potassium phosphate was added the mixture.
In another flask, 1 gram of copper sulfate was added to 250 ml of water and mechanically blended. Then, 1 gram of potassium phosphate was added to the blend. The pH of the solution was adjusted with potassium hydroxide. Immediately a powder solid was formed and precipitated. The hydroxide and phosphate salts of copper were formed.
In 400 ml of water, 1 gram of copper sulfate was added and 10 ml of the product from example 28 were added. With mechanical stirring, 20 grams of monopotassium phosphate were added to the mix. The pH of the solution was then adjusted to 2 with HCl. The pH of the solution was then gradually raised with the addition of Monoethanolamine to a pH of 9.
Two grams of basic copper sulfate were added to 200 ml of water. […]

[2] = Manganese chelation, clear solution / precipitate test; assay type: physicochemical; details: 10 ml manganese nitrate solution in 25 ml water, 30 ml solution, pH 6, 1 gram potassium phosphate
Protocol: In 25 ml of water 10 ml of a manganese nitrate solution was added. Once the manganese nitrate was in solution, 30 ml of the N,N-diethanolsuccinamide amino ethanol solution produced in Example 17 was added to the mixture and the pH of the blend was adjusted to 6. Then 1 gram of potassium phosphate was added to the mixture.
A five percent chelated manganese solution was prepared by blending 18 ml of water with 58 grams of a (17% Mn) manganese nitrate solution. Once the manganese nitrate was in solution, 82 grams of the compound produced in Example 10 was added. […] This chelated manganese solution is suitable for blending with phosphorus fertilizers.

[3] = Calcium chelation, clear solution / precipitate test; assay type: physicochemical
Protocol: In a preliminary study, 2 grams of calcium chloride dihydrate were added to 200 ml of water and mechanically stirred. Then 20 ml of the diethanolsuccinamide amino ethanol solution produced in example 17 was added to the blend.
In another flask 2 grams of calcium chloride dihydrate were added to 200 ml of water and the pH was adjusted to 9. Almost immediately calcium hydroxide began to precipitate.

[4] = Zinc chelation, clear solution / precipitate test; assay type: physicochemical; details: 1 gram zinc sulfate in 25 ml water, 30 ml solution, pH 9.5, 1 gram potassium phosphate
Protocol: In 25 ml of water 1 gram of zinc sulfate was added. Once the zinc sulfate was in solution, 30 ml of the N,N-diethanolsuccinamide amino ethanol solution produced in Example 17 was added and the pH of the blend was adjusted to 9.5. Then 1 gram of potassium phosphate was added tho the mixture.
In a separate flask 25 ml of water, 1 gram of zinc sulfate and 1 gram of potassium phosphate were blended together. Immediately a white precipitate formed.
In 400 ml of water, 20 ml of a 17% zinc nitrate solution were added and 60 ml of the product from example 28 were added. With mechanical stirring, 40 grams of monopotassium phosphate were added to the mix. The pH of the solution was then adjusted to 2 with HCl. The pH of the solution was then gradually raised with the addition of Monoethanolamine to a pH of 9.
A nine percent chelated zinc solution was prepared by blending 50 ml of water with 22.4 grams zinc oxide. Concentrated HCl was added until the solution was clear. Once in solution, 125 grams of the compound produced in Example 10 was added. […] This chelated zinc solution is suitable for blending with phosphorus fertilizers 2-ethanolaminesuccinic-N-ethanolsuccinicamide (tri potassium salt) has the following formula: […]
Ten ml of 17% zinc solution were added to a liter of water. Later 20 grams of potassium phosphate were added and dissolved. Zinc phosphate formed a precipitate. Phosphorous acid was then added to lower the pH and clear the solution. Once clear 30 ml of the solution prepared in example 35 was added. This acidic solution, which was acidic, then remained undisturbed for a day, after which the pH was adjusted to 10 with the addition of MEA.

[5] = Iron chelation, clear solution / precipitate test; assay type: physicochemical; details: 20 ml 1.8M ferric nitrate in 25 ml water, 30 ml solution, pH 9.2, 1 gram potassium phosphate
Protocol: A five percent chelated iron solution was prepared by blending 18 ml of water with 100 grams of a (10% Fe) ferric nitrate solution. Once in solution, 82 grams of the compound produced in Example 10 was added.
In 25 ml of water, 20 ml of a 1.8M ferric nitrate was added. Once in solution, 30 ml of the diethanolsuccinamide amino ethanol solution produced in Example 17 was added and the pH of the blend was adjusted to 9.2. Then 1 gram of potassium phosphate was added to the mixture.
Five drops of 1.8 M ferric nitrate were added to one liter of water and mechanically blended. Then 10 grams of potassium phosphate were added to the solution and allowed to form insoluble potassium salts.
In 400 ml of water, 20 ml of a 10% ferric nitrate solution were added, and 20 ml of the product from example 25 were added. With mechanical stirring, 40 grams of monopotassium phosphate was added the mix. The pH of the solution was then adjusted to 2 with HCl. The pH of the solution was then gradually raised with the addition of base to a pH of 10.
In 400 ml of water, 10 ml of 1.8 M ferric nitrate solution were added and 20 ml of the product from example 28 were added. With mechanical stirring, 20 grams of monopotassium phosphate was added to the mix. The pH of the solution was then adjusted to 2 with HCL. The pH of the solution was then gradually raised with the addition of Monoethanolamine to a pH of 10.
To a beaker containing one liter of water, 20 grams of potassium phosphate were added to form a clear solution.
Thirty grams of 1.8 M ferric nitrate were added to 100 ml of water. The pH of the solution was lowered to 4 with phosphorous acid, and then 5 grams of Potassium phosphate were then added to the blend. Later 30 ml of the solution produced in example 29 was added.
One hundred ml of the solution prepared in Example 41 was added to 500 ml of water and blended. 10 ml of 1.8-M ferric nitrate was then added to the mixture. […] The potassium salt of maleic acid was tested as a chelating agent.
In a separate flask 20 grams of maleic anhydride were blended in 500 ml of water. Potassium hydroxide was then added to the blend to raise the pH to 10. Later ten ml of 1.8M ferric nitrate was added to the mix and 10 grams of potassium phosphate was also blended in. […] The contents of the flask were then blended again while MEA was added to the mix.

[6] = test system: pepper plants; experiment: IDS versus EDTA chelates applied to the soil of pepper plants, tissue analysis; assay type: in vivo
Protocol: Below is the protocol and tissue analysis for the soil-applied iminodisuccinate and EDTA chelated mineral salts. Treatments: Control—no fertilizer 15-30-15 (fertilizer) alone 15-30-15 plus Cu IDS […] 15-30-15 plus Mn IDS […] 15-30-15 plus Zn IDS […] The standard fertilizer contained no micronutrients. Fertilizer was Hyponex 15-30-15. Each treatment was replicated 3 times. Soil treatments were applied as 50 ml per of the dilute blend of this invention. The pepper plants were transplanted into 1-gallon containers and grown until a suitable size. Plants were treated with the soil-applied chelate. Tissue samples were taken 30 days after the soil treatment had been applied. […] One gallon of fertilizer was poured over three replications of each set in the trial.

[7] = test system: corn seed, NCE Hybrid 5817; experiment: Corn seed germination with IDS acid, root hairs; assay type: in vivo; details: 10 corn seed on germination tray, 1/10th of a gram of IDS acid, imbibed with water, day 5; control: root hairs only on short segments
Text: A 34% tetrasodium iminodisuccinate solution was protonated with concentrated HCl and crystalized under refrigeration in a dilute water/ethanol. The crystals were then filtered out of the solution and the residual sodium chloride was rinsed from the crystals with ice water. The IDS crystals were then dried. Two sets of 10 corn seed, NCE Hybrid 5817, were then placed on germination trays. One tray had 1/10th of a gram of the IDS acid placed in the center of the tray. The seeds were then imbibed with water. The seeds germinated as expected on day 2. On day 5 the root hairs began to show on the seedlings treated with the IDS. Photos were taken. This procedure was repeated on three occasions with simular results. There were also root hairs on the control set, however, the root hairs were only on short segments of the roots. […] This would be a substantial increase in the root surface area.

| SMILES | appearance of blend / precipitates [1] | appearance of blend / precipitates [2] | appearance of solution / precipitates ([3]; 2 grams calcium chloride dihydrate in 200 ml water, 20 ml solution, pH 9) | calcium phosphate precipitate formation ([3]; same solution lowered to a pH of 5.5, phosphate salts added) | appearance of blend / precipitates [4] | appearance of blend / precipitates [5] | copper in tissue, TREATED ([6]; soil applied with 15-30-15, tissue 30 days after treatment, control 8.0) | TREATED (dry weight) ([6]; soil applied, control 4.8) | TREATED DRY ([6]; soil applied, dry weight, CONTROL DRY 4.8) | copper in tissue, TREATED ADJUSTED ([6]; soil applied, tissue level times dry weight, control adjusted 38.08) | copper in tissue, CHANGE IN (adjusted) ([6]; soil applied, treated adjusted minus control adjusted 38.08) | CHANGE IN WEIGHT ([6]; soil applied, treated dry minus control dry 4.8) | copper in tissue, % CHANGE (adjusted) ([6]; soil applied, versus control adjusted 38.08) [%] | % CHANGE (dry weight) ([6]; soil applied, versus control dry 4.8) [%] | root hairs on seedlings [7] |
| --- | --- | --- | --- | --- | --- | --- | --- | --- | --- | --- | --- | --- | --- | --- | --- |
| O=C(CC(C(=O)[O-])N(CCO)C(CC(=O)NCCO)C(=O)[O-])NCCO.[K+].[K+] (stereo not drawn) [Example 17, diethanolsuccinicamide-amino ethanol] | clear, dark blue and free of precipitates | clear, amber in color, and free of precipitates | a clear solution free of precipitates | without calcium phosphate precipitate formation | clear, yellow, and free of precipitates | clear, dark ruby red and free of precipitates | – | – | – | – | – | – | – | – | – |
| O=C(O)CC(NC(CC(=O)O)C(=O)O)C(=O)O (stereo not drawn) [IDS, iminodisuccinic acid] | – | – | – | – | – | – | 10.8 | 6.4 | 6.8 | 68.79 | 30.72 | 2.09 | 81 | 44 | root hairs appear along the entire length of radical and lateral roots |
